Reference: patent US20100267750A1, “METHODS AND COMPOSITIONS FOR TREATING PAIN” (priority 2005, published 2010)

Columns and labels:
hTRPA1 = target: T1, hTRPA1 (Homo sapiens, UniProt O75762, K186N); test: hTRPA1 Fluo4 calcium flux assay in HEK293/TREx cells; type: cell-based; settings: Table 2; read-out: hTRPA1 Fluor IC50
T1 construct: expressed in transfected cells; host or cells: HEK293/TREx (Invitrogen), stably transfected, tetracycline-induced
From the text: The assay depended on detection of the rise in intracellular Ca^2+ concentration ([Ca^2+]i) following channel activation in cells inducibly expressing the TRPA1 channel. Ca^2+ rise was quantified with the use of fluorescent Ca^2+ indicators that were loaded into cells and thereafter indicated the [Ca^2+]i. Ca^2+ influx followed activation of the TRPA1 channel. Compounds inhibiting the [Ca^2+]i rise were considered hits for further investigation.
These cells were maintained in the growth medium recommended by the manufacturer supplemented with 100 μg/ml hygromycin to promote retention of the TRPA1 construct. After growing to near confluency, cells were plated at a density of ˜25,000 cells/well in 384 well CellBind plates (Corning) in the presence of 1 μg/ml tetracycline, and allowed to grow for 20-30 hrs. A nearly confluent monolayer resulted. […] These controls defined a screening window, and “hits” were defined as those compounds inhibiting the fluorescence response by at least 40%. IC50 values were determined for compounds defined as “hits.” The Fluo4 cell-based fluorescence assay was used to determine the intracellular Ca^2+ concentration in the presence of varying drug concentration. […]

[1] = test system: formalin induced paw flinching; test: Formalin model of pain; type: in vivo, rat; settings: 2% formalin intraplantar, drug 15 min before
Procedure: As outlined above, the formalin model involves injection of a formalin solution intradermally or […]. Injection of formalin solution invokes a biphasic response, and thus provides a model for both nociceptive and inflammatory pain. The formalin model can be used to evaluate the effectiveness of an exemplary TRPA1 inhibitor in the treatment of pain. […] Briefly, the following protocol was followed. Male Holtzmann rats received intraplantar injections of 50 μL of 2% formalin. Paw flinching was detected by an automated sensor detecting movement of a small metal band placed on the injected hind paw. Drug or vehicle was administered approximately 15 minutes prior to the injection of formalin. The animal's response to injection of the irritant was measured by counting flinches per minutes during the Early Phase (the first 5 minutes following injection of formalin), during the Late Phase (approximately 30 minutes after injection of formalin), and during the intervening pain free phase. In FIG. 2, the right most bar for each data set (Early Phase and Late Phase) represents administration of vehicle alone and the left most bar represents administration of gabapentin. […]

[2] = Plasma levels / pharmacokinetics in male Sprague-Dawley rat; type: in vivo; settings: oral suspension 12 mg/kg
Procedure: Compound 200 plasma levels were determined via HPLC/MS/MS following a single intravenous bolus dose of 0.9 mg/kg, an intraperitoneal dose of 12 mg/kg (suspension), and an oral dose of 12 mg/kg (suspension) in the male Sprague-Dawley rat. […] For intraperitoneal administration, Compound 200 was formulated as a uniform suspension in CMC (carboxymethylcellulose) at a target concentration of 1 mg/mL and administered at a dose volume of 10 mL/kg. For oral administration, Compound 200 was formulated as a uniform suspension in CMC (carboxymethylcellulose), at a target concentration of 1 mg/mL, administered by gavage, at a dose volume of 10 mL/kg, to the conscious, fasted, male Sprague-Dawley rat.

[3] = test system: CFA induced thermal hyperalgesia; test: CFA model of inflammatory pain
Procedure: FIG. 4 summarizes data obtained following testing of Compound 200 in the CFA model. Naive rats were pretested for sensitivity to a heat stimulus in the Hargreaves apparatus. The next day, 100 μL of complete Freund's adjuvant (CFA) was injected into the plantar surface of the right hindpaw. Two days later, in the morning, the rats were again pretested. In the afternoon, rats were injected with either vehicle control or with drug (TRPA1 inhibitor 200 or the non-steroidal anti-inflammatory diclofenac). Drugs or vehicle were injected intraperitoneally, and 45 minutes later rats were tested for hyperalgesia by applying the heat source to the CFA injected and uninjected hindpaw and measuring latency to withdrawal.

[4] = test system: bladder pressure in BOO rats; test: Partial bladder outlet obstruction (BOO) model of incontinence; settings: intravesical infusion
From the text: Efficacy of the varying doses of TRPA1 inhibitory compound were compared to controls administered excipients alone (sham control). Efficacy was also compared to rats administered a positive control, such as atropine.
Female Sprague Dawley rats were used in these studies. Rats underwent surgical partial bladder outlet obstruction (BOO) or sham surgery. Five weeks after BOO (or sham) surgery, an intravesical catheter was surgically implanted into the dome of the bladder for conducting urodynamic studies. One week after catheter implantation (6 weeks after BOO or sham), urodynamic studies began. […] An analytic balance beneath the wire-bottom animal cage measured the amount of urine voided during continuous cystometry. […]
For each CMG cycle, the following parameters were assessed: infused volume (the amount of saline or drug infused for each CMG cycle); void volume (the amount of urine voided by the animal for each CMG cycle); minimum pressure (minimum pressure during filling); threshold pressure (pressure prior to micturition when bladder pressure begins to rise steeply); average pressure (average pressure during filling and before threshold); maximum pressure; intermicturition interval (time between two subsequent voiding events); urine flow rate index.

[5] = test system: bradykinin induced tactile allodynia; test: Bradykinin induced pain model; type: in vivo, rat
Procedure: As outlined above, the bradykinin model involves an intraplantar injection of a 5 ng/uL solution of bradykinin. Injection of the bradykinin solution typically causes a rapid sensitization. Sensitization is measured by assessing the thermal escape latency of the injected paw in response to a mild thermal stimulus delivered by a modified Hargreaves apparatus. FIGS. 1a and 1b summarize data obtained following testing of Compound 200 in the bradykinin model. This study examined the antinociceptive effects of 200 mg/kg, 50 mg/kg, and 12.5 mg/kg intraperitoneal Compound 200 on bradykinin induced tactile allodynia. […] Inhibitor or vehicle were injected intraperitoneally (IP). […] Throughout the study, general behavioral assessments were made during each period of observation. Observations included tactile allodynia (vocalization/agitation induced by light touch applied to the body surface), spontaneous vocalization, biting and chewing of body surface, loss of hind limb placing and stepping reflex, loss of hind limb weight bearing, and loss of righting reflex. Additionally, mechanical allodynia was assessed and measured. The results provided in FIGS. 1a and 1b are based on assessment of mechanical allodynia.

[6] = test system: carrageenan-induced inflammation (paw volume); test: Carrageenan model of acute inflammatory pain; type: in vivo, rat; settings: IP, 30-60 minutes before testing
Procedure: In this study, the drug administered was either a TRPA1 inhibitor or the non-steroidal anti-inflammatory diclofenac. Following administration of both carrageenan and drug or vehicle control, paw volume was measured and used to assess decreased inflammation.

T1 sequence (O75762 whole entry K186N): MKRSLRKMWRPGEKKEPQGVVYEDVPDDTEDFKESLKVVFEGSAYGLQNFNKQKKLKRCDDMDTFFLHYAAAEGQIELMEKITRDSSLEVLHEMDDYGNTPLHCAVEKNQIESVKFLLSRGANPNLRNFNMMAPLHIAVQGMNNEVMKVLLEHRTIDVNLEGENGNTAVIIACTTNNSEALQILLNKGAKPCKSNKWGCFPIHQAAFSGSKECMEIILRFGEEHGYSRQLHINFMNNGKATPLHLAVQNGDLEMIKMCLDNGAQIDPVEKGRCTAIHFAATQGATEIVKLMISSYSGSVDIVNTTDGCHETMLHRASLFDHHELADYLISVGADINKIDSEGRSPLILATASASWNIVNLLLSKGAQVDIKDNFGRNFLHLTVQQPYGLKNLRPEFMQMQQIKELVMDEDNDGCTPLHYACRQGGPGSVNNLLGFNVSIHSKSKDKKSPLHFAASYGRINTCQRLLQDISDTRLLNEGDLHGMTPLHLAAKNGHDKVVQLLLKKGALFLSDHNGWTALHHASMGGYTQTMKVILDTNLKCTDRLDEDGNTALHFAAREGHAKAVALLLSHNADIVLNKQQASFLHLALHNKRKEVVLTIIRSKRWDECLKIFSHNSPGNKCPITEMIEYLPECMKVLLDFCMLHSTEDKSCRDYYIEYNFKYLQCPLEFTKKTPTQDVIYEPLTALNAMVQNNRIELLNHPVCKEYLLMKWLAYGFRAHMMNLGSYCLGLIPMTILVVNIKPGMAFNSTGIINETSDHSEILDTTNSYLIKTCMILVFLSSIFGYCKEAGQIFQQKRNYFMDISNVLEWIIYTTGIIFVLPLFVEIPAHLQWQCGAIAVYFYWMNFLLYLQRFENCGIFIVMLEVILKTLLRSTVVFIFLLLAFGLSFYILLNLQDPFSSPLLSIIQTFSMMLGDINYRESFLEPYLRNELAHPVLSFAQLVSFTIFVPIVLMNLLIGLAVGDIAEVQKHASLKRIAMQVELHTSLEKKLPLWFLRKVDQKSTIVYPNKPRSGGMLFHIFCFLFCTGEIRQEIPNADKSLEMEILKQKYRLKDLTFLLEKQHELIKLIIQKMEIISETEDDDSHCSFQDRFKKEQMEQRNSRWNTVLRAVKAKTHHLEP

IC50 (hTRPA1) [µM] | Compound | flinches per minute, Early Phase [1] | flinches per minute, Late Phase [1] | time at which Cmax occurred [2] [min] | control paw (uninflamed) sensation ([3]; IP, tested 45 minutes later) | efficacy compared with diclofenac ([3]; IP, tested 45 minutes later) | thermal hyperalgesia, CFA injected paw ([3]; IP, tested 45 minutes later) | toxicity ([3]; rat, in vivo, 45 min) | maximum bladder pressure [4] | threshold bladder pressure [4] | effect on mechanical threshold after bradykinin injection ([5]; IP 12.5, 50, 200 mg/kg, 30 min before bradykinin) | behavioral parameters ([5]; IP doses up to 200 mg/kg) | sedation ([5]; highest dose (200 mg/kg IP)) | paw volume (inflammation) [6]
≤ 30 | COC(=O)c1ccc(C)c(NC(=O)Cn2cnc3c2c(=O)n(C)c(=O)n3C)c1 [Compound 346] |  |  |  |  |  |  |  |  |  |  |  |  | 
 | CC(C)c1ccc(NC(=O)Cn2cnc3c2c(=O)n(C)c(=O)n3C)cc1 [Compound 200, 2-(1,3-dimethyl-2,6-dioxo-1,2,3,6-tetrahydropurin-7-yl)-N-(4-isopropylphenyl)acetamide] | substantially reduced | substantially reduced | 45 | not affected | superior to diclofenac | reduced thermal hyperalgesia | without toxicity | decreased | decreased | dose dependent effect | no changes | only mild sedation was observed in 3 of 8 rats | decreased paw volume
